Here are results for nine compounds from US7879835B2 (Korea Research Institute of Chemical Technology, priority 2004, dated 2011).

A short description of data set [1]: In vitro pharmacokinetics: metabolic stability in liver microsome. Format: in vitro ADME. Conditions: human liver microsome 1 mg/ml, 20 μM compound; for half-life at 20 µM: liver microsomes. The method, then:
Metabolic stabilities of the compounds of the Examples were examined by employing microsome samples prepared from the human liver.
Each 20 μM of the compounds were reacted with 1 mg/ml of liver microsome and the half-lives and one-hour stabilities of the compounds were determined.
For orientation: Liver microsomes are vesicles of endoplasmic reticulum, rich in cytochrome P450 enzymes.

The next data set concerns MG-63 cells. Put plainly: Cytotoxicity test against osteoblast (MTT). Type of data set: cell-based, human. The method, then: (§1) In order examine the toxicities of the compounds of the Examples against osteoclast pregenitors, pregenitor cells were aliquotted onto a 96-well microplate at a density of 2×10^5 cells per well, treated with 2, 4 and 8 μM of the test compounds, respectively, and cultured for 48 hrs in α-MEM supplemented with 20 ng/ml of M-CSF (Peprotech, USA) using 37° C. incubator (5% CO2). At 3 hrs before the culture was finished, 50 μl of MTT (3-(4,5-dimethylthiazol-2-yl)-2,5-diphenyltetrazolium bromide) solution (50 μg/ml) was added to each well. Upon completion of the cell culture, the supernatant was removed, and the precipitated dye was reacted with 100 μl of isopropanol/0.04 N HCl at room temperature for 30 min to dissolve it. The absorbances of the wells were measured at 550 nm, and the relative absorbance of each well relative to that of the control (set as 100) is shown in Table 6.
In order to examine the toxicity of the compounds of the Examples against osteoblasts, human osteosarcoma-derived cell line, MG-63 (ATCC No. CRL-1427) cells were treated with 0.1, 0.3, 1.0 and 3.0 μM of the compounds of the Examples, and cultured in DMEM supplemented with 10% FBS (fetal bovine serum).

Data set [2] deals with osteoclast (TRAP-positive multinuclear cell) formation. Kind of data set: Inhibitory effect on osteoclast formation (TRAP staining). Conditions: compared to control; for inhibition at 0.1 µM / inhibition at 0.3 µM / inhibition at 1 µM / inhibition at 3 µM: Mus musculus, Osteoclast, read-out: Osteoclast formation inhibitory effects (%); for inhibition at 0.1 µM: 0.1 μM (Table 4b); for inhibition at 0.3 µM: 0.3 μM (Table 4b); for inhibition at 1 µM: 1 μM (Table 4b); for inhibition at 3 µM: 3 μM (Table 4b); for Osteoclast formation inhibitory effects (%): 8 days culture with M-CSF and RANKL. Type of data set: cell-based, mice. The essentials:
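Non-adherent bone marrow cells from 7–9-week-old female mice, 2×10^5 per well, cultured 8 days with M-CSF (20 ng/ml), RANKL (30 ng/ml) and compound at 0.3, 1.0 or 3 μM. Formation scored by TRAP staining after fixation, 1 h at 37 °C, pH 5.0.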

In another data set the test system is osteoclasts. Kind of data set: Inhibitory effect on resorption activity of osteoclast (resorption pit area on calcium phosphate-coated plate). Type of data set: cell-based, mice. The note with it: compared to control. Here is the method:
After finishing culture, the plate was washed with distilled water, and 50 μl/well of 5% sodium hypochlorite was added to the plate. The plate was let alone for 5 min, washed again with distilled water to remove the adherent cells, and dried at room temperature. Then, the area of formed resorption pits was calculated by means of Image Pro Plus software (Media Cybernetics Ver. 3.0).

Data set [3] deals with osteoclast pregenitor cells. Kind of data set: Cytotoxicity against osteoclast pregenitor (MTT). Format: cell-based, mice. Conditions: 48 hrs, absorbance at 550 nm. The method, then: as §1

SMILES strings stand for the structures.

The half-life is the time needed for the level to fall by half in the phase considered. Lower therefore signals fast loss. In data set [1], `CO/C=C(/C(=O)OC)c1ccc(Cl)cc1COc1cccc(N2CCOCC2)c1` [Compound No. 386, (E)-methyl-2-[2-((3-morpholinophenoxy)methyl)-4-chlorophenyl]-3-methoxyacrylate] returned a half-life at 20 µM of 40.7 min. In addition, in the data set on MG-63 cells (0.33 μM compound), the “relative absorbance (MTT) relative to control (set as 100)” value was found to be 101. In addition, the “relative absorbance (MTT) relative to control (set as 100)” value in the data set with MG-63 cells (1 μM compound) is on record as 69. For the same compound, the “relative absorbance (MTT) relative to control (set as 100)” value in the data set on MG-63 cells (3 μM compound) is listed as 68. In data set [2], the inhibition at 0.1 µM is 100%, the inhibition at 0.3 µM turned out to be 100%, the inhibition at 1 µM turned out to be 100% and the inhibition at 3 µM came to 100%.
`CO/C=C(/C(=O)OC)c1ccccc1COc1ccc(N(C)CC(C)C)cc1F` [Compound No. 426, (E)-methyl-2-[2-((4-(N-isobutyl-N-methylamino)-2-fluorophenoxy)methyl)phenyl]-3-methoxyacrylate] had a half-life at 20 µM in data set [1] of 42.7 ± 2.1 min. Also, in data set [2], the inhibition at 0.1 µM was 25%, the inhibition at 0.3 µM is 100%, the inhibition at 1 µM is 100% and the inhibition at 3 µM turned out to be 100%.
With `CO/C=C(/C(=O)OC)c1ccccc1COc1cccc(C(OC)OC)c1` [compound 133], the entries for the “Reduction (%) of the resorption pit area of osteoclasts” value (“Reduction (%)” below) with osteoclasts (0.3 uM), in the data set with osteoclasts (1 uM) and in the data set with osteoclasts (3 uM) were 75%, 99% and 100%, respectively. Also, the “relative absorbance relative to that of the control (set as 100), MTT” value (“relative absorbance relative to that” for short) in the data set with MG-63 cells (0.11 uM) came out at 103; with MG-63 cells (0.33 uM) it was 108; with MG-63 cells (1 uM), 107; with MG-63 cells (3 uM), 103; in data set [3] (2 uM) it was 93; in data set [3] (4 uM), 104. Moreover, in data set [3] (8 uM), the “relative absorbance relative to that” value is reported as 102. Also, the “Osteoclast formation inhibitory effects (%)” value is given as 16% in data set [2] (0.3 μM), 95% in data set [2] (1.0 μM) and 100% in data set [2] (3.0 μM).
Regarding `CO/C=C(/C(=O)OC)c1ccccc1COc1ccc(C2OCCCO2)cc1` [compound 161], the “Reduction (%)” value with osteoclasts (0.3 uM) is on record as 94%; in the data set with osteoclasts (1 uM), 100%; with osteoclasts (3 uM), 100%. The same compound displayed a Half-life in data set [1] of 45.6 min. For the same compound, in data set [1], the One-hour stability stood at 40%. Further, the “Osteoclast formation inhibitory effects (%)” value stood at 19% in data set [2] (0.3 μM), 100% in data set [2] (1.0 μM) and 100% in data set [2] (3.0 μM).
For the compound `CO/C=C(/C(=O)OC)c1ccccc1COc1cccc(OC2CCCC2)c1` [compound 222], the “Reduction (%)” value is 100.0% in the data set on osteoclasts (0.3 uM), 100% with osteoclasts (1 uM) and 100% with osteoclasts (3 uM). Moreover, the figures for the “Osteoclast formation inhibitory effects (%)” value in data set [2] (0.3 μM), in data set [2] (1.0 μM) and in data set [2] (3.0 μM) were 69%, 100% and 100%, respectively. Also, the “relative absorbance relative to that” value in data set [3] (2 uM) was determined as 97; in data set [3] (4 uM), 108; in data set [3] (8 uM) it was 101.
Regarding `CO/C=C(/C(=O)OC)c1ccccc1COc1cccc(N2CCN(C)CC2)c1` [compound 391], in data set [1], the half-life at 20 µM worked out at 107 ± 18.6 min. Besides, the “relative absorbance (MTT) relative to control (set as 100)” value with MG-63 cells (0.33 μM compound) turned out to be 104. The “relative absorbance (MTT) relative to control (set as 100)” value in the data set with MG-63 cells (1 μM compound) came out at 99. In addition, the “relative absorbance (MTT) relative to control (set as 100)” value in the data set with MG-63 cells (3 μM compound) was determined as 111. Also, in data set [2], the inhibition at 0.3 µM turned out to be 4%, the inhibition at 1 µM came out at 50% and the inhibition at 3 µM was found to be 100%.
As for `CO/C=C(/C(=O)OC)c1ccc(Cl)cc1COc1ccc(N2CCOCC2)cn1` [compound 394], the half-life at 20 µM in data set [1] is 55.5 ± 12 min. The “relative absorbance (MTT) relative to control (set as 100)” value with MG-63 cells (0.33 μM compound) is recorded as 113. Moreover, the “relative absorbance (MTT) relative to control (set as 100)” value in the data set with MG-63 cells (1 μM compound) was 105. For the same compound, in the data set on MG-63 cells (3 μM compound), the “relative absorbance (MTT) relative to control (set as 100)” value was determined as 110. Besides, in data set [2], the inhibition at 0.1 µM is 0%, the inhibition at 0.3 µM stood at 98%, the inhibition at 1 µM is 100% and the inhibition at 3 µM came out at 100%.
As to `CO/C=C(/C(=O)OC)c1ccccc1COc1ccc(N2CCCCC2)cc1` [compound 399], the half-life at 20 µM in data set [1] is 43 ± 1.8 min. In the data set with MG-63 cells (0.33 μM compound), the “relative absorbance (MTT) relative to control (set as 100)” value amounted to 96. The “relative absorbance (MTT) relative to control (set as 100)” value in the data set on MG-63 cells (1 μM compound) was 76. Also, the “relative absorbance (MTT) relative to control (set as 100)” value with MG-63 cells (3 μM compound) is reported as 65. Moreover, in data set [2], the inhibition at 0.1 µM turned out to be 0%, the inhibition at 0.3 µM worked out at 70%, the inhibition at 1 µM came out at 100% and the inhibition at 3 µM is 100%.
Consider `CO/C=C(/C(=O)OC)c1ccccc1COc1ccc(N2CCCCC2)c(F)c1` [compound 416], for which the half-life at 20 µM in data set [1] amounted to 43.9 min. Further, in data set [2], the inhibition at 0.1 µM amounted to 0%, the inhibition at 0.3 µM amounted to 75%, the inhibition at 1 µM is 100% and the inhibition at 3 µM amounted to 100%.
